This is an account of results in PubChem BioAssay AID1996.

Converted amounts (≈) assume the structure as drawn. Some results are limits rather than exact numbers.

For the data set the following is noted: buffer; pH 7.4; 200.0 µM.
As usually defined, the kinetic solubility is the concentration staying in solution when a stock, usually in DMSO, is diluted into the medium. `Cc1cc(C)cc(NC(=O)N(C)Cc2ccccc2)c1` displayed a solubility (kinetic) of 2 µg/mL (≈ 7.45 µM).

For the molecule `O=C(NCCS(=O)(=O)N1CCCCCC1)c1ccccc1`, the solubility (kinetic) is more than 46.6 µg/mL.

Turning to `Cn1c(=O)cc(N)n(-c2ccccc2)c1=O`, the solubility (kinetic) was more than 32.6 µg/mL.

`O=C(CCNS(=O)(=O)c1ccccc1C(F)(F)F)NCCCN1CCOCC1` gave a kinetic solubility of more than 63.5 µg/mL.

Consider `COc1ccc2cc(C(=O)N3CCN(C)CC3)[nH]c2c1`, for which the solubility (kinetic) was more than 41 µg/mL.

In the case of `C=CCNc1nc(C)c(CNc2c(C)cc(C)cc2C)nc1C#N`, the kinetic solubility was 0.9 µg/mL (≈ 2.8 µM).

`CC(C)(C)c1csc(CS(=O)(=O)c2ccccn2)n1`: the kinetic solubility was more than 44.5 µg/mL.

Turning to `CN1CCC(CNC(=O)Nc2ccccc2)(c2ccccc2)CC1`, the kinetic solubility is more than 48.5 µg/mL.

With `NC(=S)NNC(=O)COc1ccccc1O`, the kinetic solubility is more than 36.2 µg/mL.

With `Cc1cc(Cl)ccc1NC(=O)CN1CCCC1`, the kinetic solubility was more than 37.9 µg/mL.

`FC(F)(F)c1ccccc1CCN1CCNCC1` displayed a kinetic solubility of 32.9 µg/mL (≈ 127 µM).

The molecule `CC(=O)c1ccc(N2CCN(Cc3nc4ccccc4[nH]3)CC2)cc1` displayed a kinetic solubility of 29.8 µg/mL (≈ 89.1 µM).

Regarding `O=C(/C=C/c1ccco1)NCc1ccco1`, the kinetic solubility is more than 32.6 µg/mL.

On to `Cc1ccc(O)c(NC(=O)C2CC(c3cccc(Br)c3)=NO2)c1` (stereo not drawn), for which the solubility (kinetic) is less than 0.4 µg/mL.

`COc1cc2c(cc1OC)/C(=C/C(=O)c1ccccc1F)NCC2` had a kinetic solubility of 40.4 µg/mL (≈ 123 µM).

As for `N#C/C(=C\c1cccs1)C(=O)c1ccccc1`, the kinetic solubility came to 26.3 µg/mL (≈ 110 µM).

Molecule `Cc1ccc(C(=O)CCC(=O)N2CCC(C(N)=O)CC2)s1` yielded a kinetic solubility of more than 46.3 µg/mL.

As for `CN(C)/C(=N\S(=O)(=O)c1ccccc1)c1ccc(Cl)cc1`, the kinetic solubility is more than 48.4 µg/mL.

As for `NS(=O)(=O)c1ccc(NC(=O)COC(=O)Cn2cnc3ccccc3c2=O)cc1`, the kinetic solubility came out at 18 µg/mL (≈ 43.2 µM).

`CC(=O)N1CCN(Cc2nc3ccc(Cl)cc3n2CCO)CC1` showed a solubility (kinetic) of more than 50.5 µg/mL.

For the molecule `COc1ccccc1OCC(=O)Nc1ccc(NC(=O)COc2ccccc2OC)cc1`, the kinetic solubility was 1.4 µg/mL (≈ 3.21 µM).

Consider `CC(=O)c1cc(C)ccc1OC(=O)c1ccncc1`, for which the kinetic solubility is 35.8 µg/mL (≈ 140 µM).

As to `Cc1ccc(C(=O)NCC(=O)N(C)Cc2cccc(F)c2)s1`, the solubility (kinetic) was more than 48.1 µg/mL.

In turn, `Cc1ccc(N2C(=O)CC(Sc3nccc(C)n3)C2=O)cc1` (stereo not drawn) had a solubility (kinetic) of more than 47 µg/mL.

As for `O=C(O)c1ccc(N2C(=O)c3cccc4cccc(c34)C2=O)cc1`, the kinetic solubility is more than 47.6 µg/mL.

`COc1cc(C2NC(=O)c3ccccc3O2)ccc1OC(C)C` (stereo not drawn) came in with a solubility (kinetic) of 5.9 µg/mL (≈ 18.8 µM).

In turn, `Cc1csc(SCC(=O)NCc2cccc(Cl)c2)n1` had a kinetic solubility of more than 46.9 µg/mL.

`CC(=O)c1c(C)[nH]c(-c2ccccc2)nc1=S` gave a solubility (kinetic) of 33.2 µg/mL (≈ 136 µM).

With `CCCCOc1ccc(-c2c(C#N)c(N)[nH]c(=S)c2C#N)cc1`, the kinetic solubility turned out to be 35.6 µg/mL (≈ 110 µM).

Take `O=C(NCCCN1CCOCC1)c1cc(Cl)ccc1Cl`: the kinetic solubility turned out to be 41 µg/mL (≈ 129 µM). This solubility kinetic and that of the molecule before are within 1.5-fold of each other.

`COc1cc2c(C#N)c(N3CCc4ccccc4C3)nc(N)c2c(N)n1`: the solubility (kinetic) stood at 1.6 µg/mL (≈ 4.62 µM). This solubility kinetic is about 26-fold lower than that of the molecule before.

For `OC(CN1CCC(Cc2ccccc2)CC1)c1ccccc1` (stereo not drawn), the kinetic solubility was more than 44.3 µg/mL.

As for `N#C/C(=C\c1cc([N+](=O)[O-])ccc1Cl)C(N)=O`, the kinetic solubility came out at 33.5 µg/mL (≈ 133 µM).

With `Cc1cc2c3c(c1)C(C)CC(C)(C)N3C(=O)C2=C(C#N)C#N` (stereo not drawn), the kinetic solubility amounted to 0.6 µg/mL (≈ 2.06 µM). This solubility kinetic is about 56-fold lower than that of the molecule before.

As for `Cc1cc(NC(=O)COC(=O)C2CC(=O)N(c3ccccc3)C2)no1` (stereo not drawn), the solubility (kinetic) is more than 51.5 µg/mL.

Take `O=S(=O)(NCc1csc(-c2cccs2)n1)c1cccs1`: the solubility (kinetic) came out at 49 µg/mL (≈ 143 µM).

Turning to `CCN(CC)S(=O)(=O)c1ccc(-c2csc(C)n2)cc1`, the kinetic solubility came to 37.3 µg/mL (≈ 120 µM). The solubility kinetic values of the last two molecules are within 1.5-fold of each other.

Molecule `COCCNc1ncnc2c1cnn2Cc1ccccc1Cl` displayed a solubility (kinetic) of more than 47.7 µg/mL.

In turn, `Oc1cccnc1Sc1cccc(C(F)(F)F)c1` gave a kinetic solubility of 38.2 µg/mL (≈ 141 µM).

Regarding `NC(=O)CN1C(=O)NC(c2ccccc2)(c2ccccc2)C1=O`, the solubility (kinetic) was more than 46.4 µg/mL.

`Cc1ncc([N+](=O)[O-])n1CC(=O)Nc1ccc(Br)cc1` had a kinetic solubility of 9.9 µg/mL (≈ 29.2 µM).

`CC(=O)c1c(C)[nH]c(C(=O)COC(=O)c2cc(C)oc2C)c1C` yielded a solubility (kinetic) of 13.1 µg/mL (≈ 41.3 µM).

Molecule `O=C(NC1CCCc2ccccc21)c1ccccc1Cl` (stereo not drawn) came in with a solubility (kinetic) of 39.6 µg/mL (≈ 139 µM).

`N#CCSc1nc2ccccc2o1` came in with a solubility (kinetic) of 14.3 µg/mL (≈ 75.2 µM).

Consider `CCC(C)N1C(=O)CN(C2CCCCCC2)C(=O)C1c1ccccc1F` (stereo not drawn), for which the kinetic solubility came to 19.6 µg/mL (≈ 54.4 µM).

For the molecule `Cc1nc2nc(-c3cccs3)[nH]c2cc1Br`, the solubility (kinetic) was determined as 3.8 µg/mL (≈ 12.9 µM).

In the case of `CC(Cl)C(=O)Nc1cc(C(C)(C)C)nn1-c1ccccc1` (stereo not drawn), the kinetic solubility was more than 45.9 µg/mL.

For the molecule `O=C(CNCCO)Nc1ccc(F)c(Cl)c1`, the kinetic solubility was more than 37 µg/mL.

As for `CCCCCOc1ccc(NC2=CC(=O)CCC2)cc1`, the kinetic solubility is more than 41 µg/mL.

Regarding `CCOc1cc(C(=O)OCC(=O)Nc2cccc(S(=O)(=O)NC3=NCCCCC3)c2)cc(OCC)c1OCC`, the solubility (kinetic) was determined as 24.2 µg/mL (≈ 43.1 µM).

`CC(C)[C@H](NC(=O)NCCC1=CCCCC1)C(=O)O` registered a kinetic solubility of more than 40.3 µg/mL.

As for `Cc1cccc(Nc2cc(C)nc3ccccc23)c1.Cl`, the kinetic solubility was more than 42.7 µg/mL.

Regarding `Cc1nc(-c2cccs2)sc1C(=O)O`, the solubility (kinetic) was more than 33.8 µg/mL.
